{
  "source": "patent US20230340011A1",
  "about": "(Asteroid Therapeutics, priority 2022, published 2023)",
  "note": "pIC50: −log10 of the molar value.",
  "data": [
    {"target": "SREBP-2 (Homo sapiens (Human), UniProt Q12772)", "assay": "In vitro assay SREBP-2: PathHunter U2OS SREBP-2 Nuclear Translocation Cell Line, U18666A-stimulated", "assay_type": "cell-based", "conditions": "not given", "values": [
      {"smiles": "CNC(=O)O[C@@H](C)[C@H]1CC[C@H]2[C@@H]3CC=C4C[C@@H](O)CC[C@]4(C)[C@H]3CC[C@]12C", "note": "[Example 243, (1S)-1-[(1S,3aS,3bS,7S,9aR,9bS,11aS)-7-hydroxy-9a,11a-dimethyl-1H,2H,3H,3aH,3bH,4H,6H,7H,8H,9H,9aH,9bH,10H,11H,11aH-cyclopenta[a]phenanthren-1-yl]ethyl N-methylcarbamate]", "pIC50": "> 6.60"}
    ]},
    {"target": "SREBP-2 (Homo sapiens (Human), UniProt Q12772)", "assay": "In vitro assay SREBP-2: PathHunter U2OS SREBP-2 Nuclear Translocation Cell Line, U18666A-stimulated", "assay_type": "cell-based", "conditions": "PathHunter U2OS SREBP-2 nuclear translocation cells, U18666A 10 μM, overnight (16 hours)", "values": [
      {"smiles": "CCOc1cccnc1CC[C@@H](C)[C@H]1CC[C@H]2[C@@H]3CC=C4C[C@@H](O)CC[C@]4(C)[C@H]3CC[C@]12C", "note": "[Example 457, (1R,3aS,3bS,7S,9aR,9bS,11aR)-1-[(2R)-4-(3-ethoxypyridin-2-yl)butan-2-yl]-9a,11a-dimethyl-1H,2H,3H,3aH,3bH,4H,6H,7H,8H,9H,9aH,9bH,10H,11H,11aH-cyclopenta[a]phenanthren-7-ol]", "pIC50": "> 6.60"},
      {"smiles": "C[C@H](CCC(=O)N1CCNCC1)[C@H]1CC[C@H]2[C@@H]3CC=C4C[C@@H](O)CC[C@]4(C)[C@H]3CC[C@]12C", "note": "[Example 2, (R)-4-((3S,8S,9S,10R,13R,14S,17R)-3-hydroxy-10,13-dimethyl-2,3,4,7,8,9,10,11,12,13,14,15,16,17-tetradecahydro-1H-cyclopenta[a]phenanthren-17-yl)-1-(piperazin-1-yl) pentan-1-one]", "pIC50": "6.00 to 6.60"},
      {"smiles": "CNC(=O)NC[C@@H](C)[C@H]1CC[C@H]2[C@@H]3CC=C4C[C@@H](O)CC[C@]4(C)[C@H]3CC[C@]12C", "note": "[Example 464, 1-((S)-2-((3S,8S,9S,10R,13S,14S,17R)-3-hydroxy-10,13-dimethyl-2,3,4,7,8,9,10,11,12,13,14,15,16,17-tetradecahydro-1H-cyclopenta[a]phenanthren-17-yl)propyl)-3-methylurea]", "pIC50": "6.00 to 6.60"},
      {"smiles": "C[C@H](Oc1cnccc1CO)[C@H]1CC[C@H]2[C@@H]3CC=C4C[C@@H](O)CC[C@]4(C)[C@H]3CC[C@]12C", "note": "[Example 437, (3S,8S,9S,10R,13S,14S,17S)-17-((S)-1-((4-(hydroxymethyl)pyridin-3-yl)oxy)ethyl)-10,13-dim ethyl-2,3,4,7,8,9,10,11,12,13,14,15,16,17-tetradecahydro-1H-cyclopenta[a]phenanthren-3-ol]", "pIC50": "6.00 to 6.60"},
      {"smiles": "C[C@H](CCC(=O)N1CC[C@@H](Oc2ccncc2)C[C@@H]1C)[C@H]1CC[C@H]2[C@@H]3CC=C4C[C@@H](O)CC[C@]4(C)[C@H]3CC[C@]12C", "note": "[Example 586, (R)-4-((3S,8S,9S,10R,13R,14S,17R)-3-hydroxy-10,13-dimethyl-2,3,4,7,8,9,10,11,12,13,14,15,16,17-tetradecahydro-1H-cyclopenta[a]phenanthren-17-yl)-1-((2S,4R)-2-methyl-4-(pyridin-4-yloxy)piperidin-1-yl)pentan-1-one]", "pIC50": "> 6.60"},
      {"smiles": "C[C@H](CCC(=O)N1CCC(N(C)S(C)(=O)=O)CC1)[C@H]1CC[C@H]2[C@@H]3CC=C4C[C@@H](O)CC[C@]4(C)[C@H]3CC[C@]12C", "note": "[Example 415, N-{1-[(4R)-4-[(1R,3aS,3bS,7S,9aR,9bS,11aR)-7-hydroxy-9a,11a-dimethyl-1H,2H,3H,3aH,3bH,4H,6H,7H,8H,9H,9aH,9bH,10H,11H,11aH-cyclopenta[a]phenanthren-1-yl]pentanoyl]piperidin-4-yl}-N-methylmethanesulfonamide]", "pIC50": "6.00 to 6.60"},
      {"smiles": "C[C@H](CC[C@](O)(C1CC1)C(F)(F)F)[C@H]1CC[C@H]2[C@@H]3CC=C4C[C@@](C)(O)CC[C@]4(C)[C@H]3CC[C@]12C", "note": "[Example 368, (3S,8S,9S,10R,13R,14S,17R)-17-((2R,5S)-5-cyclopropyl-6,6,6-trifluoro-5-hydroxyhexan-2-yl)-3,10,13-trimethyl-2,3,4,7,8,9,10,11,12,13,14,15,16,17-tetradecahydro-1H-cyclopenta[a]phenanthren-3-ol]", "pIC50": "6.00 to 6.60"},
      {"smiles": "Cc1ccncc1O[C@@H](C)[C@H]1CC[C@H]2[C@@H]3CC=C4C[C@@H](O)CC[C@]4(C)[C@H]3CC[C@]12C", "note": "[Example 271, (3S,8S,9S,10R,13S,14S,17S)-10,13-dimethyl-17-((S)-1-((4-methylpyridin-3-yl)oxy)ethyl)-2,3,4,7,8,9,10,11,12,13,14,15,16,17-tetradecahydro-1H-cyclopenta[a]phenanthren-3-ol]", "pIC50": "6.00 to 6.60"},
      {"smiles": "C=CC1(O)CCN(C(=O)CC[C@@H](C)[C@H]2CC[C@H]3[C@@H]4CC=C5C[C@@H](O)CC[C@]5(C)[C@H]4CC[C@]23C)CC1", "note": "[Example 146, (R)-4-((3S,8S,9S,10R,13R,14S,17R)-3-hydroxy-10,13-dimethyl-2,3,4,7,8,9,10,11,12,13,14,15,16,17-tetradecahydro-1H-cyclopenta[a]phenanthren-17-yl)-1-(4-hydroxy-4-vinylpiperidin-1-yl) pentan-1-one]", "pIC50": "> 6.60"},
      {"smiles": "CC(C)CC1(O)CCN(C(=O)CC[C@@H](C)[C@H]2CC[C@H]3[C@@H]4CC=C5C[C@@H](O)CC[C@]5(C)[C@H]4CC[C@]23C)CC1", "note": "[Example 93, (R)-4-((3S,8S,9S,10R,13R,14S,17R)-3-hydroxy-10,13-dimethyl-2,3,4,7,8,9,10,11,12,13,14,15,16,17-tetradecahydro-1H-cyclopenta[a]phenanthren-17-yl)-1-(4-hydroxy-4-isobutylpiperidin-1-yl) pentan-1-one]", "pIC50": "> 6.60"},
      {"smiles": "CNC(=O)c1cncc(O[C@@H](C)[C@H]2CC[C@H]3[C@@H]4CC=C5C[C@@H](O)CC[C@]5(C)[C@H]4CC[C@]23C)c1", "note": "[Example 266, 5-((S)-1-((3S,8S,9S,10R,13S,14S,17S)-3-hydroxy-10,13-dimethyl-2,3,4,7,8,9,10,11,12,13,14,15,16,17-tetradecahydro-1H-cyclopenta[a]phenanthren-17-yl)ethoxy)-N-methylnicotinamide]", "pIC50": "6.00 to 6.60"},
      {"smiles": "CCC1(O)CCN(C(=O)C[C@@H](C)[C@H]2CC[C@H]3[C@@H]4CC=C5C[C@@H](O)CC[C@]5(C)[C@H]4CC[C@]23C)CC1", "note": "[Example 592, (R)-1-(4-ethyl-4-hydroxypiperidin-1-yl)-3-((3S,8S,9S,10R,13R,14S,17R)-3-hydroxy-10,13-dimethyl-2,3,4,7,8,9,10,11,12,13,14,15,16,17-tetradecahydro-1H-cyclopenta[a]phenanthren-17-yl)butan-1-one]", "pIC50": "> 6.60"},
      {"smiles": "C#CC1(OC)CCN(C(=O)CC[C@@H](C)[C@H]2CC[C@H]3[C@@H]4CC=C5C[C@@H](O)CC[C@]5(C)[C@H]4CC[C@]23C)CC1", "note": "[Example 330, (R)-1-(4-ethynyl-4-methoxypiperidin-1-yl)-4-((3S,8S,9S,10R,13R,14S,17R)-3-hydroxy-10,13-dimethyl-2,3,4,7,8,9,10,11,12,13,14,15,16,17-tetradecahydro-1H-cyclopenta[a]phenanthren-17-yl)pentan-1-one]", "pIC50": "> 6.60"},
      {"smiles": "C[C@H](Oc1ccccn1)[C@H]1CC[C@H]2[C@@H]3CC=C4C[C@@H](O)CC[C@]4(C)[C@H]3CC[C@]12C", "note": "[Example 381, (3S,8S,9S,10R,13S,14S,17S)-10,13-dimethyl-17-((S)-1-(pyridin-2-yloxy)ethyl)-2,3,4,7,8,9,10,11,12,13,14,15,16,17-tetradecahydro-1H-cyclopenta[a]phenanthren-3-ol]", "pIC50": "5.00 to 6.00"},
      {"smiles": "COC(=O)N1CCN(C(=O)O[C@@H](C)[C@H]2CC[C@H]3[C@@H]4CC=C5C[C@@H](O)CC[C@]5(C)[C@H]4CC[C@]23C)CC1", "note": "[Example 237, 1-(1S)-1-[(1S,3aS,3bS,7S,9aR,9bS,11aS)-7-hydroxy-9a,11a-dimethyl-1H,2H,3H,3aH,3bH,4H,6H,7H,8H,9H,9aH,9bH,10H,11H,11aH-cyclopenta[a]phenanthren-1-yl]ethyl 4-methyl piperazine-1,4-dicarboxylate]", "pIC50": "> 6.60"},
      {"smiles": "CC(=O)N1CCC(C(=O)N(C)CC[C@@H](C)[C@H]2CC[C@H]3[C@@H]4CC=C5C[C@@H](O)CC[C@]5(C)[C@H]4CC[C@]23C)CC1", "note": "[Example 294, 1-acetyl-N—((R)-3-((3S,8S,9S,10R,13R,14S,17R)-3-hydroxy-10,13-dimethyl-2,3,4,7,8,9,10,11,12,13,14,15,16,17-tetradecahydro-1H-cyclopenta[a]phenanthren-17-yl)butyl)-N-methylpiperidine-4-carboxamide]", "pIC50": "6.00 to 6.60"},
      {"smiles": "C[C@H](CC[C@](O)(C1CCC1)C(F)(F)F)[C@H]1CC[C@H]2[C@@H]3CC=C4C[C@@H](O)CC[C@]4(C)[C@H]3CC[C@]12C", "note": "[Example 25, (3S,8S,9S,10R,13R,14S,17R)-17-((2R,5S)-5-cyclobutyl-6,6,6-trifluoro-5-hydroxyhexan-2-yl)-10,13-dimethyl-2,3,4,7,8,9,10,11,12,13,14,15,16,17-tetradecahydro-1H-cyclopenta[a]phenanthren-3-ol]", "pIC50": "6.00 to 6.60"},
      {"smiles": "C[C@H](CCC(=O)N1CCC[C@@H](Oc2ccncc2)C1)[C@H]1CC[C@H]2[C@@H]3CC=C4C[C@@H](O)CC[C@]4(C)[C@H]3CC[C@]12C", "note": "[Example 521, (R)-4-((3S,8S,9S,10R,13R,14S,17R)-3-hydroxy-10,13-dimethyl-2,3,4,7,8,9,10,11,12,13,14,15,16,17-tetradecahydro-1H-cyclopenta[a]phenanthren-17-yl)-1-((R)-3-(pyridin-4-yloxy)piperidin-1-yl)pentan-1-one]", "pIC50": "> 6.60"},
      {"smiles": "C[C@H](CCC(=O)N1CCC(O)(C2CCC2)CC1)[C@H]1CC[C@H]2[C@@H]3CC=C4C[C@@H](O)CC[C@]4(C)[C@H]3CC[C@]12C", "note": "[Example 194, (R)-1-(4-cyclobutyl-4-hydroxypiperidin-1-yl)-4-((3S,8S,9S,10R,13R,14S,17R)-3-hydroxy-10,13-dimethyl-2,3,4,7,8,9,10,11,12,13,14,15,16,17-tetradecahydro-1H-cyclopenta[a]phenanthren-17-yl)pentan-1-one]", "pIC50": "> 6.60"},
      {"smiles": "C#CC1(O)CCN(C(=O)CC[C@@H](C)[C@H]2CC[C@H]3[C@@H]4CC=C5C[C@@H](O)CC[C@]5(C)[C@H]4CC[C@]23C)CC1", "note": "[Example 147, (R)-1-(4-ethynyl-4-hydroxypiperidin-1-yl)-4-((3S,8S,9S,10R,13R,14S,17R)-3-hydroxy-10,13-dimethyl-2,3,4,7,8,9,10,11,12,13,14,15,16,17-tetradecahydro-1H-cyclopenta[a]phenanthren-17-yl)pentan-1-one]", "pIC50": "> 6.60"}
    ]}
  ]
}
